Test results: ChEMBL document CHEMBL1944517, “New inhibitors of dihydroorotate dehydrogenase (DHODH) based on the 4-hydroxy-1,2,5-oxadiazol-3-yl (hydroxyfurazanyl) scaffold” (Eur J Med Chem, 2012)

Target: Dihydroorotate dehydrogenase (quinone), mitochondrial (Rattus norvegicus, UniProt Q63707)
Test: Inhibition of dihydroorotate dehydrogenase in Wistar rat liver mitochondrial/microsomal membranes measured for 5 mins by 2,6-dichlorophenolindophenol reduction-based spectrophotometry
Assay type: cell membranes, Membrane

Chain of Dihydroorotate dehydrogenase (quinone), mitochondrial (Q63707 whole entry): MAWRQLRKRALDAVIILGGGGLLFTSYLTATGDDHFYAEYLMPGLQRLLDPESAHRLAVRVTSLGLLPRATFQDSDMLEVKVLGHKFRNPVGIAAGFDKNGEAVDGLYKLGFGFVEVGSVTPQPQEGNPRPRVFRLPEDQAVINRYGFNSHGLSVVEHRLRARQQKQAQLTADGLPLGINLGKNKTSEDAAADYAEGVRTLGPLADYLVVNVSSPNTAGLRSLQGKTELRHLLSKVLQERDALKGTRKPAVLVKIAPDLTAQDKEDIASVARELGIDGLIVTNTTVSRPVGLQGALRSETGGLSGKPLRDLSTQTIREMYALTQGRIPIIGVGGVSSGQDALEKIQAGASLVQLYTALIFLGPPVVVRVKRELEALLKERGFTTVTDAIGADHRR

Compound	IC50 [nM]
O=C(Nc1c(F)cc(-c2ccccc2)cc1F)c1no[nH]c1=O	880
O=C(Nc1c(F)cc(-c2cccc(C(F)(F)F)c2)cc1F)c1nonc1O	870
O=C(Nc1ccc(C(F)(F)F)cc1)c1nonc1O	4300
O=C(Nc1c(F)c(F)c(-c2ccccc2)c(F)c1F)c1no[nH]c1=O	66
O=C(Nc1ccccc1-c1ccccc1)c1no[nH]c1=O	45000
O=C(Nc1ccc(-c2cccc(C(F)(F)F)c2)cc1)c1nonc1O	25000
O=C(Nc1ccc(-c2ccccc2)cc1)c1nonc1O	11000
O=C(Nc1c(F)c(F)c(-c2cccc(C(F)(F)F)c2)c(F)c1F)c1nonc1O	120
O=C(Nc1c(F)cc(-c2ccc(C(F)(F)F)cc2)cc1F)c1nonc1O	2300
O=C(Nc1c(F)c(F)c(-c2ccc(C(F)(F)F)cc2)c(F)c1F)c1no[nH]c1=O	490
O=C(Nc1ccc(-c2ccc(C(F)(F)F)cc2)cc1)c1nonc1O	49000
O=C(Nc1c(F)c(F)c(-c2cccc(OC(F)(F)F)c2)c(F)c1F)c1no[nH]c1=O	50
